Test results published in patent publication US4560557A, “Silicon and sulfur steroids as irreversible inhibitors of hormone biosynthesis” (University Patents, Inc., priority 1983, dated 1985).

Experiments:
[1] = test system: rat adrenocortical cells; assay: Effects of cholesterol analogues on adrenal cell corticosterone production (with or without ACTH); type: cell-based
Excerpt: When rat adrenocortical cells were stimulated with ACTH in the presence of the P-450 scc inhibitors of the present invention, and the production of cortiscoterone measured, less corticosterone was produced in the presence of the compounds of the present invention, then when those compounds were absent.
Corticosterone production rates by non-stimulated rat adrenal cell suspensions are approximately one-fifth those of ACTH stimulated rates. […] This property, combined with P-450 scc inhibitors with and without polar side chains was used to determine how ACTH stimulation results in increased conversion of endogenous cholesterol to corticosterone.
Cells (30,000/ml) were preincubated with steroid for 10 minutes.
Maximally stimulating levels of ACTH were then added and the
incubation continued for another 60 minutes. The incubations were
then quenched, and samples assayed for
corticosterone fluorometrically.

[2] = test system: human adrenal cells; assay: ACTH-stimulated cortisol production by human adrenal cell suspensions; type: cell-based; details: for time dependence of inhibition of cortisol production: FIG. 4, FIG. 5; for inhibition of ACTH-stimulated cortisol production: human cells
Excerpt: (§1) Additionally data showing that the silicon and sulfur-containing compounds of the present invention are effective at halting steroid hormone biosynthesis when given at low concentrations to suspensions of human and rat adrenal cells are depicted in the following figures and table.

[3] = test system: rat adrenal cells; assay: Time and concentration dependence of effects on ACTH-stimulated corticosterone production by rat adrenal cells; type: cell-based; details: for time dependence of inhibition of corticosterone production: FIG. 2, FIG. 3; for inhibition of ACTH-stimulated corticosterone production: rat cells
Method: as §1
Steroid was added at […]. […] At 10 μM 20 OH TMS steroid, corticosterone production is obliterated by 40 min.
Steroid was added at t=-10 min.

[4] = test system: cytochrome P-450 cholesterol side chain cleavage enzyme (P-450scc); assay: P-450scc inactivation, preincubation study (pregnenolone formation from [3H]cholesterol); type: biochemical; details: NADPH and/or O2, FIG. 1: P450 1.35 μM, steroid 20 μM
Method: As mentioned previously, the compounds of the present invention are potent inhibitors of the conversion of cholesterol to pregnenolone.
The final turnover mixture contained 2.5 μM adrenodoxin, 150 nM adrenodoxin reductase, 50 mM K^+ MOPS (pH 7.2), 10 mM MgCl2, 0.2% Tween 20, 1 unit/mL catalase, a NADPH-generating system of 16 μM NADPH, 3 mM G6P, and 1 unit/mL […]. For a typical preincubation experiment, inhibitor was added as an ethanol solution (2-10 mM) into the P-450 turnover mixture at 37° C. and the reactions were started by addition of NADPH stock solution. After, 0, 5, 10, 15, 30, or 45 min. of incubation, an aliquot of this mixture (200μ) was introduced into 1.8 ml of the turnover mixture containing [1, 2-^3 H] cholesterol (100 μM 10,000 dpm/nmol). After 10 min., the reaction was terminated by acidification, and [4-^- C] prengenolone were added as an internal standard. The resulting mixture was extracted using ethyl acetate and evaporated to dryness. The product pregnenolone was separated on silica gel TLC plates (Baker-flex) using 1:1 ethyl acetate-hexane as the solvent. The product formation was determined from the ratio of ^3 H to ^14 C in the recovered pregnenolone.
The P450 concentration was 1.35 μM and the steroid was 20 μM=NADPH; 0=no inhibitor+NADPH; 0=NADPH.

[5] = ACTH + steroid 2 ug/ml, ACTH only = 100, 10 min preincubation, 60 min incubation
[6] = FIG. 5, 10 μM for the 20(S) compound

C[C@H](CCCC(C)(C)O)[C@H]1CC[C@H]2[C@@H]3CC=C4C[C@@H](O)CC[C@]4(C)[C@H]3CC[C@]12C [25 hydroxycholesterol, reference compound]
CORTICOSTERONE PRODUCED (%) [1, 5]: 117.0% | activity at 2 µg/mL ([1]; Rattus norvegicus, 1 h, steroid 2 ug/ml without ACTH, ACTH only = 100, read-out: CORTICOSTERONE PRODUCED (%)): 21.9% | activity at 5 µg/mL ([1]; Rattus norvegicus, 1 h, steroid 5 ug/ml without ACTH, ACTH only = 100, read-out: CORTICOSTERONE PRODUCED (%)): 30.4% | corticosterone production rate relative to ACTH stimulated cells ([1]; non-stimulated cells): as much as one-half those of ACTH stimulated cells

22 (trimethylisilyl pregnenol)
inhibition of cortisol production ([2]; FIG. 4): little inhibitory effect on cortisol production

C[C@]12CC[C@H]3[C@@H](CC=C4C[C@@H](O)CC[C@@]43C)[C@@H]1CC[C@@H]2[C@@](C)(O)CC[Si](C)(C)C [20 OH TMS, 20-(2-Trimethylsilyl-ethyl) pregnen-3, 20a-diol]
corticosterone production ([3]; 10 μM steroid, by 40 min (FIG. 2)): obliterated | time dependence of inhibition of corticosterone production [3]: strongly time dependent | inhibition of ACTH-stimulated corticosterone production [3]: inhibits | inhibition of cortisol production ([2]; FIG. 4): strongly inhibits cortisol production | time dependence of inhibition of cortisol production [2]: probably in a time dependent manner | inhibition of ACTH-stimulated cortisol production [2]: inhibits | loss of enzyme activity / P-450 scc inhibition [4]: P-450 scc inhibition | loss of enzyme activity / P-450 scc inhibition ([4]; listed as trimethyl silyl-containing compound): time-dependent loss of enzyme activity

CC(C)CCS[C@H](C)[C@H]1CC[C@H]2[C@@H]3CC=C4C[C@@H](O)CC[C@]4(C)[C@H]3CC[C@]12C [20(R)22 thiacholesterol]
time dependence of inhibition of cortisol production [2]: not time dependent | inhibition of cortisol production [2, 6]: inhibited slightly | CORTICOSTERONE PRODUCED (%) [1, 5]: 117.9%

CC(C)CCS[C@@H](C)[C@H]1CC[C@H]2[C@@H]3CC=C4C[C@@H](O)CC[C@]4(C)[C@H]3CC[C@]12C [20(S)22 thiacholesterol]
time dependence of inhibition of corticosterone production [3]: only slightly time dependent | concentration dependence of inhibition of corticosterone production ([3]; FIG. 3): strongly concentration dependent | inhibition of ACTH-stimulated corticosterone production [3]: inhibits | time dependence of inhibition of cortisol production [2]: probably in a time dependent manner | inhibition of cortisol production [2, 6]: strongly inhibited | inhibition of ACTH-stimulated cortisol production [2]: inhibits | CORTICOSTERONE PRODUCED (%) ([1]; 25 hydroxycholesterol 5 ug/ml + 20(S)22 thialcholesterol 5 ug/ml, without ACTH, ACTH only = 100, 60 min): 15.5% | CORTICOSTERONE PRODUCED (%) [1, 5]: 54.1% | corticosterone production (in words) ([1]; ACTH-stimulated cells): decreased corticosterone production
